Source: patent publication US12139499B2, “Heteroaryl compounds for treating Huntington's disease” (PTC THERAPEUTICS, INC., priority 2018, dated 2024)

Test system: Endogenous Huntingtin Protein
Assay: Endogenous Huntingtin Protein Assay (ELISA-based MSD electrochemiluminescence)
Assay type: cell-based
Conditions: Table 1
Summary of the method: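 Sandwich MSD electrochemiluminescence immunoassay. Capture used MW1 (expanded polyglutamine) or MAB2166 antibody coated at 1 μg/mL overnight at 4 °C. Samples were bound overnight at 4 °C, then a rabbit monoclonal detection antibody and SULFO-TAG anti-rabbit, each at 0.25 μg/mL, were applied for 1 h at room temperature.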

Row | SMILES | IC50 [nM]
1 | Cc1cn2nc(-c3cc(F)c4nc(N(C)C5CCN[C@@H](C)C5)sc4c3)cc(C)c2n1 (stereo partly drawn) [Compound 165, 6-(2,8-dimethylimidazo[1,2-b]pyridazin-6-yl)-4-fluoro-N-methyl-N-[(2S)-2-methylpiperidin-4-yl]-1,3-benzothiazol-2-amine] | ≤ 100
2 | Cc1cn2nc(-c3cc(F)c4nc(C5=CCNCC5)sc4c3)ccc2n1 [Compound 44, 6-[4-fluoro-2-(1,2,3,6-tetrahydropyridin-4-yl)-1,3-benzothiazol-6-yl]-2-methylimidazo[1,2-b]pyridazine] | ≤ 100
3 | CN(c1nc2ccc(-c3cc(C(F)(F)F)c4nn(C)cc4c3)cc2s1)C1CC(C)(C)NC(C)(C)C1 [Compound 51, N-methyl-6-[2-methyl-7-(trifluoromethyl)-2H-indazol-5-yl]-N-(2,2,6,6-tetramethylpiperidin-4-yl)-1,3-benzothiazol-2-amine] | 100 to 500
4 | Cn1cc2cc(-c3ncc4nc(C5CCNCC5)sc4n3)cc(C#N)c2n1 [Compound 109, 2-methyl-5-[2-(piperidin-4-yl)[1,3]thiazolo[5,4-d]pyrimidin-5-yl]-2H-indazole-7-carbonitrile] | 100 to 500
5 | Oc1cc(-c2cn[nH]c2)ccc1-c1nc2cnc(C3=CCNCC3)cc2s1 [Compound 335, 5-(1H-pyrazol-4-yl)-2-[6-(1,2,3,6-tetrahydropyridin-4-yl)[1,3]thiazolo[4,5-c]pyridin-2-yl]phenol] | 1000 to 3000
6 | CN(c1nc2cnc(-c3cc(C#N)c4nn(C)cc4c3)cc2s1)[C@@H]1C[C@H]2CC[C@@H](C1)N2C [Compound 238, 2-methyl-5-(2-{methyl[(3-exo)-8-methyl-8-azabicyclo[3.2.1]oct-3-yl]amino}[1,3]thiazolo[4,5-c]pyridin-6-yl)-2H-indazole-7-carbonitrile] | ≤ 100
7 | Cc1nc2c(C)cc(-c3ccc4nc(C5CCNCC5)sc4c3)cc2[nH]1 [Compound 94, 6-(2,4-dimethyl-1H-benzimidazol-6-yl)-2-(piperidin-4-yl)-1,3-benzothiazole] | ≤ 100
8 | Cc1cn2cc(-c3cc4sc(N(C)C5CC6(C)CCC(C)(C5)N6)nc4cn3)cc(C#N)c2n1 [Compound 285, 6-(2-{[(1R,3s,5S)-1,5-dimethyl-8-azabicyclo[3.2.1]octan-3-yl](methyl)amino}[1,3]thiazolo[4,5-c]pyridin-6-yl)-2-methylimidazo[1,2-a]pyridine-8-carbonitrile] | ≤ 100
9 | Cn1cc2cc(-c3cc4sc(OC5CC(C)(C)NC(C)(C)C5)nc4cn3)cc(F)c2n1 [Compound 312, 6-(7-fluoro-2-methyl-2H-indazol-5-yl)-2-[(2,2,6,6-tetramethylpiperidin-4-yl)oxy][1,3]thiazolo[4,5-c]pyridine] | 100 to 500
10 | CCN(c1nc2cnc(-c3cc(F)c4nc(C)cn4c3)nc2s1)C1CC(C)(C)NC(C)(C)C1 [Compound 243, N-ethyl-5-(8-fluoro-2-methylimidazo[1,2-a]pyridin-6-yl)-N-(2,2,6,6-tetramethylpiperidin-4-yl)[1,3]thiazolo[5,4-d]pyrimidin-2-amine] | 100 to 500
11 | Cn1cc2cc(-c3cc(Cl)c4nc(C5=CCNCC5)sc4c3)cc(F)c2n1 [Compound 153, 4-chloro-6-(7-fluoro-2-methyl-2H-indazol-5-yl)-2-(1,2,3,6-tetrahydropyridin-4-yl)-1,3-benzothiazole] | 1000 to 3000
12 | CN(c1nc2ncc(-c3ccc4nn(C)cc4c3)cc2s1)C1CC(C)(C)NC(C)(C)C1 [Compound 16, N-methyl-6-(2-methyl-2H-indazol-5-yl)-N-(2,2,6,6-tetramethylpiperidin-4-yl)[1,3]thiazolo[4,5-b]pyridin-2-amine] | 500 to 1000
13 | CN(c1nc2cnc(-c3ccc(-c4cn[nH]c4)cc3O)cc2s1)C1CC(C)(C)NC(C)(C)C1 [Compound 137, 2-{2-[methyl(2,2,6,6-tetramethylpiperidin-4-yl)amino][1,3]thiazolo[4,5-c]pyridin-6-yl}-5-(1H-pyrazol-4-yl)phenol] | 3000 to 9000
14 | CN(c1nc2nnc(-c3ccc(-c4c[nH]nc4F)cc3O)cc2s1)C1CCNCC1 [Compound 329, 5-(3-fluoro-1H-pyrazol-4-yl)-2-{6-[methyl(piperidin-4-yl)amino][1,3]thiazolo[4,5-c]pyridazin-3-yl}phenol] | ≤ 100
15 | Cc1cn2cc(-c3ccc4nc(N(C)C5CC6CCC(C5)N6)sc4n3)cc(C#N)c2n1 (stereo not drawn) [Compound 276, 6-{2-[(3-exo)-8-azabicyclo[3.2.1]oct-3-yl(methyl)amino][1,3]thiazolo[5,4-b]pyridin-5-yl}-2-methylimidazo[1,2-a]pyridine-8-carbonitrile] | ≤ 100
16 | Cc1cn2cc(-c3cc(F)c4nc(C5CCNCC5)sc4c3)cc(F)c2n1 [Compound 152, 4-fluoro-6-(8-fluoro-2-methylimidazo[1,2-a]pyridin-6-yl)-2-(piperidin-4-yl)-1,3-benzothiazole] | ≤ 100
17 | CN1CCC(Nc2nc3nnc(-c4ccc(-c5cn[nH]c5)cc4O)cc3s2)CC1 [Compound 366, 2-{6-[(1-methylpiperidin-4-yl)amino][1,3]thiazolo[4,5-c]pyridazin-3-yl}-5-(1H-pyrazol-4-yl)phenol] | ≤ 100

Row | SMILES | IC50 [nM]
18 | CN(c1nc2ccc(-c3ccc4nn(C)cc4c3)cc2s1)C1CCNC(C)(C)C1 (stereo not shown) [Compound 155, N-(2,2-dimethylpiperidin-4-yl)-N-methyl-6-(2-methyl-2H-indazol-5-yl)-1,3-benzothiazol-2-amine] | 100 to 500
19 | C[C@@H]1C[C@@H](N(C)c2nc3nnc(-c4ccc(-c5cn[nH]c5)cc4O)cc3s2)CCN1 [Compound 396, 2-(6-{methyl[(2R,4S)-2-methylpiperidin-4-yl]amino][1,3]thiazolo[4,5-c]pyridazin-3-yl)-5-(1H-pyrazol-4-yl)phenol] | ≤ 100
20 | Cc1cc(-c2ccc3nc(N(C)C4CCN(C)C(C)C4)sc3c2)cc2cn(C)nc12 (stereo not shown) [Compound 108, 6-(2,7-dimethyl-2H-indazol-5-yl)-N-(1,2-dimethylpiperidin-4-yl)-N-methyl-1,3-benzothiazol-2-amine] | 500 to 1000
21 | Cc1cc(-c2nc3ccc(C4CCNCC4)cc3s2)cc2cn(C)nc12 [Compound 50, 2-(2,7-dimethyl-2H-indazol-5-yl)-6-(piperidin-4-yl)-1,3-benzothiazole] | 100 to 500
22 | Cc1cn2cc(-c3cc4sc(N(C)C5CC(C)(C)NC(C)(C)C5)nc4cn3)cc(C(F)(F)F)c2n1 [Compound 116, N-methyl-6-[2-methyl-8-(trifluoromethyl)imidazo[1,2-a]pyridin-6-yl]-N-(2,2,6,6-tetramethylpiperidin-4-yl)[1,3]thiazolo[4,5-c]pyridin-2-amine] | 100 to 500
23 | Cc1cn2cc(-c3ncc4nc(N(C)C5C[C@H]6CCC[C@@H](C5)N6)sc4n3)cc(C#N)c2n1 (stereo partly drawn) [Compound 256, 6-{2-[(1R,5S)-9-azabicyclo[3.3.1]non-3-yl(methyl)amino][1,3]thiazolo[5,4-d]pyrimidin-5-yl}-2-methylimidazo[1,2-a]pyridine-8-carbonitrile] | ≤ 100
24 | Cc1cn2nc(-c3cc(F)c4nc(C5CCNCC5)sc4c3)cc(CC(=O)O)c2n1 [Compound 221, {6-[4-fluoro-2-(piperidin-4-yl)-1,3-benzothiazol-6-yl]-2-methylimidazo[1,2-b]pyridazin-8-yl]acetic acid] | ≤ 100
25 | Cn1cc2cc(-c3cc(F)c4nc(C5=CCNCC5)sc4c3)ccc2n1 [Compound 72, 4-fluoro-6-(2-methyl-2H-indazol-5-yl)-2-(1,2,3,6-tetrahydropyridin-4-yl)-1,3-benzothiazole] | 100 to 500
26 | Cc1cn2cc(-c3cc4sc(NC5CC(C)(C)N(C)C(C)(C)C5)nc4cn3)cc(F)c2n1 [Compound 267, 6-(8-fluoro-2-methylimidazo[1,2-a]pyridin-6-yl)-N-(1,2,2,6,6-pentamethylpiperidin-4-yl)[1,3]thiazolo[4,5-c]pyridin-2-amine] | 100 to 500
27 | Cc1cn2cc(-c3cc4sc(N(C)C5CC(C)(C)NC(C)(C)C5)nc4cn3)cnc2n1 [Compound 105, N-methyl-6-(2-methylimidazo[1,2-a]pyrimidin-6-yl)-N-(2,2,6,6-tetramethylpiperidin-4-yl)[1,3]thiazolo[4,5-c]pyridin-2-amine] | 100 to 500
28 | Cc1cn2nc(-c3ccc4nc(C5CCNCC5)sc4c3)cc(C)c2n1 [Compound 139, 2,8-dimethyl-6-[2-(piperidin-4-yl)-1,3-benzothiazol-6-yl]imidazo[1,2-b]pyridazine] | ≤ 100
29 | CN(C)C1CCN(c2nc3ccc(-c4ccc5nn(C)cc5c4)cc3s2)CC1 [Compound 28, N,N-dimethyl-1-[6-(2-methyl-2H-indazol-5-yl)-1,3-benzothiazol-2-yl]piperidin-4-amine] | 1000 to 3000
30 | Cn1cc2cc(-c3ccc4nc(C5CCNCC5)sc4c3)cc(C#N)c2n1 [Compound 84, 2-methyl-5-[2-(piperidin-4-yl)-1,3-benzothiazol-6-yl]-2H-indazole-7-carbonitrile] | ≤ 100
31 | Cc1cc(-c2ccc3nc(C4=CCNCC4)sc3c2)cc2cn(C)nc12 [Compound 18, 6-(2,7-dimethyl-2H-indazol-5-yl)-2-(1,2,3,6-tetrahydropyridin-4-yl)-1,3-benzothiazole] | 100 to 500
32 | CN(c1nc2ccc(-c3cc(C#N)c4nn(C)cc4c3)nc2s1)C1CC2CCC(C1)N2 (stereo not drawn) [Compound 278, 5-{2-[(3-exo)-8-azabicyclo[3.2.1]oct-3-yl(methyl)amino][1,3]thiazolo[5,4-b]pyridin-5-yl}-2-methyl-2H-indazole-7-carbonitrile] | ≤ 100
33 | CN1C[C@H](F)[C@@H](N(C)c2nc3nnc(-c4ccc(-c5cn[nH]c5)cc4O)cc3s2)C1 [Compound 382, 2-(6-{[(3S,4S)-4-fluoro-1-methylpyrrolidin-3-yl](methyl)amino}[1,3]thiazolo[4,5-c]pyridazin-3-yl)-5-(1H-pyrazol-4-yl)phenol] | 100 to 500
34 | Cc1cn2nc(-c3cc(F)c4nc(C5CCNCC5)sc4c3)cc(N(C)C)c2n1 [Compound 168, 6-[4-fluoro-2-(piperidin-4-yl)-1,3-benzothiazol-6-yl]-N,N,2-trimethylimidazo[1,2-b]pyridazin-8-amine] | ≤ 100
